Test results reported in US10299714B2, “Blood collection devices containing blood stabilization agent including variegin or analog thereof and/or a polysulfated disaccharide” (Becton, Dickinson and Company, priority 2010, dated 2019).
Structures can show the parent of a compound that is named as a salt. Non-standard residues stand in square brackets, D forms with d. Residues, ends and D or L forms follow the SMILES beside them. Oic = O=C(O)[C@@H]1C[C@@H]2CCCC[C@@H]2N1; Phe(4-Me) = Cc1ccc(C[C@H](N)C(=O)O)cc1

Legend:
whole blood sample [1] = assay: Visual inspection of stored whole blood sample for hemolysis; type: cell-based, human; conditions: Table 5
Source text: Skilled practitioners will appreciate the hemolyzed samples are an obvious visual clue that damage to blood cells has occurred, either during the collection, transport, or storage of blood samples. Although hemolysis is not necessarily detrimental to any one clinical assay, it is a well known interference for some tests, and thus it is preferable to avoid causing hemolysis. Hemolysis can be measured by visual scale (e.g., mild or slightly pink, moderate or noticeably red, or severe or dark red). Hemolysis can also be measured by spectroscopic measurement of the red color of the hemoglobin itself, and can be reported by the concentration of hemoglobin released into the serum or plasma (e.g., such that less than about 20 mg/dL concentration of released hemoglobin, or to an extent that the hemoglobin concentration cannot be measured visually or by spectroscopy represents “minor or negligible” hemolysis, about 20 to about 100 mg/dL represents “mild” hemolysis, about 100 to about 300 represents “moderate” hemolysis, or greater than about 300 mg/dL represents “severe” hemolysis).
(§1) The results are shown in Table 5 which lists additives alone or in combination that were spiked into freshly drawn whole blood samples. […] For some of the conditions tested, only a subset of these three parameters was recorded.

platelets [2] = assay: Whole blood impedance aggregometry (Multiplate): platelet aggregation after room temperature storage of drawn blood; type: cell-based, human
Source text: The blood was allowed to stand at room temperature, in undisturbed aliquots, until tested at the times indicated. Samples were inverted several times immediately prior to testing, to re-suspend blood cells that naturally settle over time.
Measurements: Testing of platelet function (which in this experiment, was aggregation activity) was done using the Multiplate instrument (Verum Diagnostics, Munich, Germany), which uses whole blood as the sample and an increase in impedance as the measurement of platelet aggregation. The instrument was used per manufacturer's instructions. Briefly, 300 microliters of isotonic saline was warmed in each reaction cuvette, and to this was added 300 microliters of the whole blood sample. In reactions where aspirin or other platelet antagonists (inhibitors) were added in vitro, 20 microliters (μL) of a stock solution of aspirin was spiked into the samples. The aggregation reaction was initiated by addition of a platelet agonist, in this case collagen, at 3.2 μg/ml and volume (20 μl) per manufacturer's instructions. Upon addition of the collagen, the impedance measurements began automatically, and were continued for 6 minutes, representing the full course along the x-axis in the graphs shown in FIG. 2. The graphs show platelet aggregation, as reported by impedance, as an arbitrary unitless measurement on the y-axis, over the 6-minute run time on the x-axis. Traces shown are raw platelet aggregation data delivered from the instrument. […] Representative data are shown for blood that dwells at room temperature after the initial draw for 1 hr, 24 hr, 48 hr, and 72 hr. Data are shown for the blood itself, as well for blood pre-treated with aspirin to inhibit platelet function immediately prior to testing.
The experiments were performed as described in Example 1. In this case, the data are plotted as a function of time that the blood sample dwells outside of the body (x-axis) versus platelet function as shown as the area under the curve (AUC) as one representation of the platelet aggregation signal. AUC is the integrated signal from the raw data traces shown in Example 1, and also is reported as a unitless measurement. The effective background level of the instrument is drawn as a dashed line across the bottom of the graph. Any AUC measurement of aggregation at or below this level was considered so weak as to be unreportable, essentially representing a “null” data level.
(§2) Relative stability of platelets was examined with respect to a range of concentrations of variegin (SEQ ID NO:1). Experiments were performed as described above, using either collagen or adenosine diphosphate (ADP) as agonists, all per manufacturer's recommended protocols. Table 2 lists a qualitative assessment of stability, namely how long after initially drawing the blood was platelet aggregation measureable above the effective instrument baseline, the time to first visual observation of clotted, insoluble material in the whole blood sample, and an assessment of the severity or extent of the presence of this insoluble material was also recorded.
These peptides were used as the blood stabilization agent, and were spiked into blood immediately after collection into an empty, evacuated blood collection tube, achieving a final concentration of 150 μM. The blood was allowed to dwell in a whole-blood state at room temperature, until assayed for platelet aggregation potential, all as described in Example 1. Agonists used included collagen and ADP, following manufacturer's instructions.

platelets [3] = assay: Platelet aggregation measurements using low dose ADP agonist, inventive tube versus hirudin tube; type: cell-based, human; design: key to Aggregation, AUC: area under curve of impedance aggregation trace, arbitrary unitless units; conditions: ADP 1.25 μM
Procedure: Measurements: Testing of platelet function (which in this experiment, was aggregation activity) was done using the Multiplate instrument (Verum Diagnostics, Munich, Germany), which uses whole blood as the sample and an increase in impedance as the measurement of platelet aggregation. The instrument was used per manufacturer's instructions. Briefly, 300 microliters of isotonic saline was warmed in each reaction cuvette, and to this was added 300 microliters of the whole blood sample. In reactions where aspirin or other platelet antagonists (inhibitors) were added in vitro, 20 microliters (μL) of a stock solution of aspirin was spiked into the samples. The aggregation reaction was initiated by addition of a platelet agonist, in this case collagen, at 3.2 μg/ml and volume (20 μl) per manufacturer's instructions. Upon addition of the collagen, the impedance measurements began automatically, and were continued for 6 minutes, representing the full course along the x-axis in the graphs shown in FIG. 2. The graphs show platelet aggregation, as reported by impedance, as an arbitrary unitless measurement on the y-axis, over the 6-minute run time on the x-axis. Traces shown are raw platelet aggregation data delivered from the instrument. The duplicate traces evident in some of the graphs represent two duplicate measurement channels that always ran simultaneously, to assist with statistical significance of the data, and often so closely overlap as to look like only a single trace in some graphs. Representative data are shown for blood that dwells at room temperature after the initial draw for 1 hr, 24 hr, 48 hr, and 72 hr. Data are shown for the blood itself, as well for blood pre-treated with aspirin to inhibit platelet function immediately prior to testing.
Relative stability of platelets was examined in blood that was collected from 5 different human subjects using an inventive blood collection tube containing 150 μM variegin (SEQ ID NO:1)+1.17 USP/mL unfractionated heparin, and as a comparison, blood collection tubes containing hirudin, commercially available from Verum Diagnostica (Catalog #MP0600 for “Hirudin vacuum blood collection tube”). Experiments were carried out as described above in Example 1, using the whole blood impedance aggregometer, and using a low dose of ADP (1.25 μM final concentration) as the agonist.

whole blood sample [4] = assay: Visual inspection of stored whole blood sample for clotted, insoluble material; design: species or system human; conditions: peptide 150 μM; room temperature
Procedure: as §2
These peptides were used as the blood stabilization agent, and were spiked into blood immediately after collection into an empty, evacuated blood collection tube, achieving a final concentration of 150 μM. The blood was allowed to dwell in a whole-blood state at room temperature, until assayed for platelet aggregation potential, all as described in Example 1. Agonists used included collagen and ADP, following manufacturer's instructions. Table 4 lists a qualitative assessment of stability, namely how long after initially drawing the sample was platelet aggregation measureable above the effective instrument baseline. Additionally, the time to first visual observation of clotted, insoluble material in the whole blood sample, and an assessment of the severity or extent of the presence of this insoluble material was also recorded. In some cases, only visual characterization of the amount of insoluble material was reported, without having performed any platelet aggregation measurements.
as §1

[5] = Table 4, peptide spiked into blood to 150 μM final, collagen and ADP, room temperature

O=S(=O)(O)OC[C@H]1O[C@@](COS(=O)(=O)O)(O[C@H]2O[C@H](COS(=O)(=O)O)[C@@H](OS(=O)(=O)O)[C@H](OS(=O)(=O)O)[C@H]2OS(=O)(=O)O)[C@@H](OS(=O)(=O)O)[C@@H]1OS(=O)(=O)O [SOS, sucrose octasulfate]
Visual inspection for hemolysis (whole blood sample [1]; additive alone at 2 mM): None-mild

Cc1ccc(C[C@H](NC(=O)[C@@H](C)NC(=O)[C@@H]2CCCN2C(=O)[C@@H]2C[C@@H]3CCCC[C@@H]3N2C(=O)[C@H](N)CCCN=C(N)N)C(N)=O)cc1 [Thrombostatin (FM-19), rOicPaF(p-Me)—NH2] (H-[dR][Oic]P[dA][Phe(4-Me)]-NH2)
Visual inspection for hemolysis (whole blood sample [1]; additive alone at 30 μM): None-mild

O=C(O)CC(O)(CC(=O)O)C(=O)O [citrate, sodium citrate, reference compound]
platelet aggregation, area under the curve (AUC), FIG. 3 (platelets [2]; 24 hr after draw, collagen, no aspirin): very close to the effective null level
platelet aggregation, area under the curve (AUC), FIG. 3 (platelets [2]; 48 hr after draw, collagen, no aspirin): no meaningful aggregation was detected
platelet aggregation signal (impedance, FIG. 2) (platelets [2]; all times longer than 1 hr (24, 48, 72 hr), collagen, sodium citrate ([…]) tube): clearly lost, resulting in almost non-measureable signal
loss of platelet function relative to the 1 hr sample (FIG. 4) (platelets [2]; within 24 hr, collagen, average of three human subjects): lost well more than half of their function

CC[C@H](C)[C@H](NC(=O)[C@H](C)NC(=O)[C@H](CCC(=O)O)NC(=O)[C@H](Cc1ccccc1)NC(=O)[C@H](CC(=O)O)NC(=O)[C@H](Cc1ccccc1)NC(=O)[C@@H]1CCCN1C(=O)[C@@H]1CCCN1C(=O)[C@H](C)NC(=O)[C@@H](NC(=O)[C@H](CCCCN)NC(=O)[C@H](Cc1cnc[nH]1)NC(=O)[C@H](CCSC)NC(=O)[C@H](CCCCN)NC(=O)[C@@H]1CCCN1C(=O)[C@H](CCC(=O)O)NC(=O)[C@H](C)NC(=O)[C@@H](NC(=O)[C@H](CC(=O)O)NC(=O)CNC(=O)[C@H](CCC(N)=O)NC(=O)[C@H](CC(=O)O)NC(=O)[C@@H](N)CO)C(C)C)[C@@H](C)O)C(=O)N1CCC[C@H]1C(=O)N[C@@H](CCC(=O)O)C(=O)N[C@@H](CCC(=O)O)C(=O)N[C@@H](Cc1ccc(O)cc1)C(=O)N[C@@H](CC(C)C)C(=O)N[C@@H](CC(=O)O)C(=O)N[C@@H](CC(=O)O)C(=O)N[C@@H](CCC(=O)O)C(=O)N[C@@H](CO)C(=O)O [variegin]
platelet aggregation signal (impedance, FIG. 2) (platelets [2]; 24 and 48 hrs after draw, collagen, tube with 150 μM variegin, room temperature): preserved platelet function substantially at the level of function measured in the 1 hr-old sample
platelet aggregation, area under the curve (AUC), FIG. 3 (platelets [2]; 72 hr after draw, collagen, 150 μM variegin): meaningful measurements even at 72 hr
platelet aggregation signal (impedance, FIG. 2) (platelets [2]; 72 hr after draw, collagen, tube with 150 μM variegin, room temperature): slightly reduced but still sufficiently strong
Time after blood draw where aggregation was still measurable above baseline (platelets [2]; Table 2, 2 μM variegin, collagen or ADP, room temperature): 2 h
Time after blood draw where aggregation was still measurable above baseline (platelets [2]; Table 2, 15 μM variegin, collagen or ADP, room temperature): 24 h
Time after blood draw where aggregation was still measurable above baseline (platelets [2]; Table 2, 50 μM variegin, collagen or ADP, room temperature): 24 h
Time after blood draw where aggregation was still measurable above baseline (platelets [2]; Table 2, 75 μM variegin, collagen or ADP, room temperature): 48 to 72 h
Time after blood draw where aggregation was still measurable above baseline (platelets [2]; Table 2, 150 μM variegin, collagen or ADP, room temperature): ≥ 72 h
Time after blood draw where aggregation was still measurable above baseline (platelets [2]; [5]): 72 h
platelet aggregation signal maintained relative to the 1 hr sample (FIG. 4) (platelets [2]; as of 48 hr, collagen, average of three human subjects, 150 μM variegin): well more than half of the signal was maintained
strength of platelet aggregation signal (impedance, FIG. 2) (platelets [2]; fresh sample, 1 hr after draw, collagen […], tube with 150 μM variegin or sodium citrate ([…]), room temperature): higher than the citrate reference sample
Visual inspection for hemolysis (whole blood sample [1]; additive alone at 150 μM): None-mild

GDVAEPKMHKTAPPFDFEAIPEEYLDDES (Synthetic Peptide Variegin Fragment) [Ct29]
Time after blood draw where aggregation was still measurable above baseline (platelets [2]; [5]): 54 to 79 h

Hirudin
Aggregation, AUC (platelets [3]; 0 hr, Subject 1): 34
Aggregation, AUC (platelets [3]; 0 hr, Subject 2): 18
Aggregation, AUC (platelets [3]; 0 hr, Subject 3): 84
Aggregation, AUC (platelets [3]; 0 hr, Subject 4): 113
Aggregation, AUC (platelets [3]; 0 hr, Subject 5): 59
Aggregation, AUC (platelets [3]; 24 hr, Subject 1): 27
Aggregation, AUC (platelets [3]; 24 hr, Subject 2): 15
Aggregation, AUC (platelets [3]; 24 hr, Subject 3): 25
Aggregation, AUC (platelets [3]; 24 hr, Subject 4): 22
Aggregation, AUC (platelets [3]; 24 hr, Subject 5): 37
area under the curve for the 1 h sample (platelets [3]; one of the five samples): 18
aggregation (AUC), mean +/- spread of the 5 samples (platelets [3]; time zero): 62+/−38

SDQGDVAEPAMHKTAPPFDFEAIPEEYLDDES (Synthetic Peptide Variegin Fragment) [K10A]
time after blood draw to solid clotting of the sample (whole blood sample [4]): ≤ 4 h

heparin [reference compound]
blood stabilization performance (data not shown) (platelets [2]; used alone at 1.17 U/ml): performed relatively poorly
